In publication PMC2932959 (Journal of medicinal chemistry, 2010):

Assays:
[1] = target: NET; type: binding, rat; conditions: selectivity ratio for SERT over NET
[2] = target: DAT (Rattus norvegicus, UniProt P23977); type: binding
Sequence of DAT (P23977 whole entry): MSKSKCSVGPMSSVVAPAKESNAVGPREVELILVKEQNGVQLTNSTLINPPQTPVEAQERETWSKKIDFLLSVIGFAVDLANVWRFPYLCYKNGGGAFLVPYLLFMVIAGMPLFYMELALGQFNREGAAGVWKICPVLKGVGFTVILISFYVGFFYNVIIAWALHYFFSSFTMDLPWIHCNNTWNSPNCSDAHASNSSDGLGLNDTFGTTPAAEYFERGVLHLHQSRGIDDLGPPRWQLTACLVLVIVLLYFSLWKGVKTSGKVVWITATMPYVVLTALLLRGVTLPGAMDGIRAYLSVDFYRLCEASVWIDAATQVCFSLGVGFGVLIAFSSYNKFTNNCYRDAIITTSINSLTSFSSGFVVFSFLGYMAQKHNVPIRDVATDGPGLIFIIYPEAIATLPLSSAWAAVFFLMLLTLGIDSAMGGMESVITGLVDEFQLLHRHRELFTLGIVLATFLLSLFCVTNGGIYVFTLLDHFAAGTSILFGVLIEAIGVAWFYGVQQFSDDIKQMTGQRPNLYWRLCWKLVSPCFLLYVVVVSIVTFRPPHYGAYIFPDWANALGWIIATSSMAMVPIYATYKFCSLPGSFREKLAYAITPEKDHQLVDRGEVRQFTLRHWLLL

| Ki(NET)/Ki (SERT) [1] | SMILES | Ki [2] [nM] | Ki(DAT)/Ki (SERT) ([2]; selectivity ratio for SERT over DAT) |
| --- | --- | --- | --- |
| 193 | CN(C)CCCC1(c2ccc(F)cc2)OCc2cc(-c3cccc(F)c3)ccc21 (stereo not shown) [Compound 15, 3-(5-(3-Fluorophenyl)-1-(4-fluorophenyl)-1,3-dihydroisobenzofuran-1-yl)-N,N-dimethylpropan-1-amine] |  |  |
| 284 | COc1cccc(-c2ccc3c(c2)COC3(CCCN(C)C)c2ccc(F)cc2)c1 (stereo not shown) [Compound 11, 3-(1-(4-Fluorophenyl)-5-(3’-methoxyphenyl)-1,3-dihydroisobenzofuran-1-yl)-N,N-dimethylpropan-1-amine] |  |  |
| 122 | CN(C)CCCC1(c2ccc(F)cc2)OCc2cc(CCc3ccccc3)ccc21 (stereo not shown) [Compound 14, 3-(1-(4-Fluorophenyl)-5-phenethyl-1,3-dihydroisobenzofuran-1-yl)-N,N-dimethylpropan-1-amine] |  |  |

| SMILES | Ki(NET)/Ki (SERT) [1] | Ki [2] [nM] | Ki(DAT)/Ki (SERT) ([2]; selectivity ratio for SERT over DAT) |
| --- | --- | --- | --- |
| CN(C)CCCC1(c2ccc(F)cc2)OCc2cc(-c3cc(F)cc(F)c3)ccc21.O=C(O)C(=O)O (stereo not shown) [Compound 13, 3-(5-(3,5-Difluorophenyl)-1-(4-fluorophenyl)-1,3-dihydroisobenzofuran-1-yl)-N,N-dimethylpropan-1-amine oxalate] | 19 |  |  |
| CN(C)CCCC1(c2ccc(F)cc2)OCc2cc(Br)ccc21 (stereo not shown) [Compound 5, 3-(5-bromo-1-(4-fluorophenyl)-1,3-dihydroisobenzofuran-1-yl)-N,N-dimethylpropan-1-amine] | >10,000 | 1650 ± 112 | 1590 |
